The structures appear in SMILES notation.

In test [1] the target is T1, CRFR1 (human CRF receptor 1, corticotropin-releasing factor receptor 1) (Homo sapiens, UniProt P34998).
T1 construct: gene CRHR1; receptor expressed in transfected CHO cells (Cerep)
T1 sequence (P34998 24-415): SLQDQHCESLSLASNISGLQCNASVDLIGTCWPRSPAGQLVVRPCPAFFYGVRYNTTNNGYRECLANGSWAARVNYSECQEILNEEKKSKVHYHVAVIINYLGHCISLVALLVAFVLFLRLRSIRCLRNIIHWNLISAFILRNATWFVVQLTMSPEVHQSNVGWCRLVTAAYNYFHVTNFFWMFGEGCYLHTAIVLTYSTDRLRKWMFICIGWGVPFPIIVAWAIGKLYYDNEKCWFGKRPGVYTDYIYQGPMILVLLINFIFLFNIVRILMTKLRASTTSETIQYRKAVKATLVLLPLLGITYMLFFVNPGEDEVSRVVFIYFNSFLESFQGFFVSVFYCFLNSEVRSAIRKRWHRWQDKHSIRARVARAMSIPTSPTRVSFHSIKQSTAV
Nature of the test: HTRF cAMP assay, antagonist mode, transfected CHO cells; KB from IC50 by modified Cheng-Prusoff equation. The format is cell-based. The text has this:
HTRF cAMP assay, antagonist mode, transfected CHO cells; KB from IC50 by modified Cheng-Prusoff equation on CRFR1 (human CRF receptor 1, corticotropin-releasing factor receptor 1)
(In general: TR-FRET usually uses a lanthanide donor and a delayed reading to cut background.)

Test [2] addresses T1, CRFR1 (human CRF receptor 1, corticotropin-releasing factor receptor 1). Nature of the test: HTRF cAMP assay, antagonist mode, transfected CHO cells. The format is cell-based. The text has this: HTRF cAMP assay, antagonist mode, transfected CHO cells on CRFR1 (human CRF receptor 1, corticotropin-releasing factor receptor 1)

As for `COc1c(CC=C(C)C)c(O)cc2oc(=O)c(-c3ccc(O)cc3O)cc12` [Glycycoumarin], in test [1], the Kb (commonly the affinity of an antagonist, worked out from how it opposes an agonist) amounted to 1300 nM. Moreover, it took 52 µM to reach half-maximal inhibition in test [2] (IC50).
For the compound `CC1(C)[C@@H](O)CC[C@]2(C)[C@H]3C(=O)C=C4[C@@H]5C[C@@](C)(C(=O)O)CC[C@]5(C)CC[C@@]4(C)[C@]3(C)CC[C@@H]12` [Glycyrrhetic acid], the Kb in test [1] is 350 nM. Also, in test [2], the IC50 – broadly, the point on the concentration scale where inhibition reaches its midpoint – turned out to be 14 µM.
For `COc1ccc([C@@H]2CC(=O)c3c(O)cc(O)cc3O2)cc1O` [Hesperetin] the same measures were 45000 nM and 130 µM.
For `O=C(/C=C/c1ccc(O)cc1)c1ccc(O)cc1O` [Isoliquiritigenin] the same measures were 670 nM and 28 µM.
For the compound `COc1ccc(-c2cc(=O)c3c(OC)c(OC)c(OC)c(OC)c3o2)cc1OC` [Nobiletin], the Kb in test [1] came to 360 nM. Moreover, in test [2], the IC50 came to 15 µM.
For `COc1ccc(-c2cc(=O)c3c(OC)c(OC)c(OC)c(OC)c3o2)cc1` [Tangeretin] the same measures were 1500 nM and 60 µM.
For `CCCCCCC/C=C/C(=O)CCc1ccc(O)c(OC)c1` [[8]-Shogaol] the same measures were 1800 nM and 74 µM.

For the origin of these results see PMC4897628, “CRF receptor 1 antagonism and brain distribution of active components contribute to the ameliorative effect of rikkunshito on stress-induced anorexia” (Scientific Reports, 2016).
